Values after ≈ are worked out from the molar mass of the structure shown. Where two headings read alike, the source gives them in different places.

Format in all cases: cell-based
The test system of one test is M. pneumoniae ATCC 15492. The test is described as follows: anti-mycoplasmal MIC, Friis broth solidified with agarose (Table 4). The following applies: Mycoplasmoides pneumoniae, ATCC15492, 144 h, 6 days at 37° C.
Another test deals with M. suipneumoniae LABER. The test is described as above. The following applies: Mesomycoplasma hyopneumoniae, 144 h, 6 days at 37° C.
Test [1] deals with M. suipneumoniae PW/C/210. The description is as above. The following applies: Mesomycoplasma hyopneumoniae, 144 h, 6 days at 37° C.
Test [2] concerns M. hyosynoviae ATCC 25591. The description is as above. The following applies: 144 h.
Test [3] has as its system M. bovigenitalium ATCC 14173. The test is described as above. The following applies: 144 h.
Test [4] has as its system M. suipneumoniae J2206/183b. The description is as above. The following applies: Mesomycoplasma hyopneumoniae, 144 h, 6 days at 37° C.
The subject of another test is M. hyorhinis ATCC 25021. The description is as above. The following applies: Mesomycoplasma hyorhinis, ATCC25021, 144 h, 6 days at 37° C.
Test [5] has as its system M. suipneumoniae ATCC 25095. The test is described as above. The following applies: Mesomycoplasma hyopneumoniae, ATCC25095, 144 h, 6 days at 37° C.
A further test has as its system M. suipneumoniae TAM 6N. Described as above. The following applies: Mesomycoplasma hyopneumoniae, TAM6N, 144 h, 6 days at 37° C.
A further test relates to M. hyorhinis ATCC 23234. The test is described as above. The following applies: Mesomycoplasma hyorhinis, ATCC23234, 144 h, 6 days at 37° C.
Test [6] relates to 12 strains of M. suipneumoniae. The test is described as follows: anti-mycoplasmal MIC, Friis broth solidified with agarose (Table 4), mean over strains. The following applies: Mesomycoplasma hyopneumoniae, 144 h; mean of 12 strains; 6 days at 37° C.; read-out: Mean MIC for above 12 strains of M. suipneumoniae.
The test system of the next test is M. gallisepticum S6. Put plainly: anti-mycoplasmal MIC, Friis broth solidified with agarose (Table 4). The following applies: Mycoplasmoides gallisepticum.
In the next test the test system is M. suipneumoniae UCD1. Described as above. The following applies: Mesomycoplasma hyopneumoniae, 144 h, 6 days at 37° C.
A further test deals with M. dispar NCTC 10125. The test is described as above. The following applies: 144 h, 6 days at 37° C. How it is done:
The values were determined in Friis broth solidifed with 0.9% agarose. The inoculum was 10^3 to 10^5 CFV and the MIC's were recorded after 6 days incubation at 37° C.

A further test deals with M. suipneumoniae HK(2). Described as above. The following applies: Mesomycoplasma hyopneumoniae, 144 h, 6 days at 37° C.
Test [7] relates to M. suipneumoniae NCTC 10110. The test is described as above. The following applies: Mesomycoplasma hyopneumoniae, NCTC10110, 144 h.
For another test, the system named is M. bovis NCTC 10131. The test is described as follows: microbe, parasite or virus in culture. The following applies: NCTC10131, 144 h.
The subject of the next test is M. suipneumoniae NB12. The test is described as follows: anti-mycoplasmal MIC, Friis broth solidified with agarose (Table 4). The following applies: Mesomycoplasma hyopneumoniae.
The next test relates to M suipneumoniae Str 11. The test is described as follows: in vitro anti-mycoplasmal MIC, Friis' broth (Table 3). The method, then:
(§1) The minimum inhibitory concentrations (MIC) of the examples were determined by either:
(§2) (i) in Friis' broth using microtitre plates, by modification of the metabolic-inhibition test (Taylor-Robinson, Post Frad, Med. J., 1967, 43, 100).

The subject of a further test is M dispar NCTC 10125. The description is as above. The method, then:
as §1, §2

The test system of test [8] is M pneumoniae ATCC 15492. Described as above. How it is done: as §1, §2
Test [9] deals with M pulmonis JB. The description is as above. The method, then: as §1, §2
The subject of test [10] is M fermentans MWKL4. Described as above. How it is done: as §1, §2
Another test relates to M dispar H225. The test is described as above. The method, then:
as §1, §2

In test [11] the test system is M suipneumoniae J2206/183b. Described as above. The method, then: as §1, §2
For test [12], the system named is M pneumoniae 427a. The description is as above. How it is done:
as §1, §2

A further test has as its system M alkalescens NCTC 10135. The test is described as follows: in vitro anti-mycoplasmal MIC, Friis' agar (Table 3). How it is done:
as §1
(§3) or (ii) by serial dilution in Friis' agar medium.

In another test the test system is M synoviae ATCC 25204. The description is as above. How it is done:
as §1, §3

Test [13] concerns M pneumoniae ATCC 15492. The description is as above. How it is done:
as §1, §3

Test [14] deals with M pulmonis JB. Described as above. How it is done: as §1, §3
Test [15] has as its system M fermentans MWKL4. Described as above. The method, then: as §1, §3
Another test deals with M hyosynoviae ATCC 25591. The description is as above. The method, then: as §1, §3
A further test concerns M arthritidis ATCC 14124. Described as above. The method, then:
as §1, §3

The test system of another test is M hyorhinis ATCC 23234. Described as above. How it is done: as §1, §3
For test [16], the system named is M bovigenitalium ATCC 14173. Described as above. The method, then: as §1, §3
A further test concerns M gallisepticum S6. The test is described as above. How it is done:
as §1, §3

Test [17] has as its system M pneumoniae 427a. The description is as above. The method, then:
as §1, §3

`C/C(=C\C(=O)OC(C)CCCCCS(N)(=O)=O)CC1OCC(CC2OC2C(C)C(C)O)C(O)C1O` (stereo not shown) [Example 5, 7-Sulphamoylhept-2-yl monate A]: the MIC against M. pneumoniae ATCC 15492 came to 1000 µg/mL (≈ 1920 µM); in the test with M. suipneumoniae LABER, 250 µg/mL (≈ 479 µM); in test [1] it was 250 µg/mL (≈ 479 µM); in test [2], 100 µg/mL (≈ 192 µM); in test [3] (M. bovigenitalium ATCC 14173, 6 days at 37° C., read-out: MIC) it was 50 µg/mL (≈ 95.8 µM); in test [4] it was 500 µg/mL (≈ 958 µM). The MIC is 250 µg/mL (≈ 479 µM) with M. hyorhinis ATCC 25021; 250 µg/mL (≈ 479 µM) in [5]; 500 µg/mL (≈ 958 µM) in the test on M. suipneumoniae TAM 6N; 250 µg/mL (≈ 479 µM) in the test with M. hyorhinis ATCC 23234; 480 µg/mL (≈ 920 µM) in [6]; 2500 µg/mL (≈ 4790 µM) against M. gallisepticum S6 (S6, 144 h). For the same compound, the MIC in the test on M. suipneumoniae UCD1 is 1000 µg/mL (≈ 1920 µM); in the test on M. dispar NCTC 10125 it was 100 µg/mL (≈ 192 µM); against M. suipneumoniae HK(2) it was 1000 µg/mL (≈ 1920 µM); in test [7] (M. suipneumoniae NCTC 10110, 6 days at 37° C., read-out: MIC), 500 µg/mL (≈ 958 µM); with M. bovis NCTC 10131, at most 10 µg/mL; in the test on M. suipneumoniae NB12 (144 h, M. suipneumoniae NB12, 6 days at 37° C., read-out: MIC), 500 µg/mL (≈ 958 µM).
On to `C/C(=C\C(=O)OCCCCCCS(N)(=O)=O)CC1OCC(CC2OC2C(C)C(C)O)C(O)C1O` (stereo not shown) [Example 2, 6-Sulphamoylhexyl monate A], for which the MIC with M suipneumoniae Str 11 was at most 0.02 µg/mL; against M dispar NCTC 10125, under 0.02 µg/mL; with M pneumoniae ATCC 15492 [8] it was 0.312 µg/mL (≈ 0.615 µM); with M pulmonis JB [9], under 0.02 µg/mL; against M fermentans MWKL4 [10], under 0.02 µg/mL; in the test on M dispar H225 it was under 0.02 µg/mL. For the same compound, the MIC was 0.156 µg/mL (≈ 0.307 µM) in test [11]; 0.312 µg/mL (≈ 0.615 µM) against M pneumoniae 427a [12]; under 0.02 µg/mL against M alkalescens NCTC 10135; under 0.02 µg/mL against M synoviae ATCC 25204; 0.625 µg/mL (≈ 1.23 µM) against M pneumoniae ATCC 15492 [13]; at most 0.02 µg/mL against M pulmonis JB [14]. The MIC was 0.039 µg/mL (≈ 0.0768 µM) in the test on M fermentans MWKL4 [15]; 0.039 µg/mL (≈ 0.0768 µM) with M hyosynoviae ATCC 25591; 5 µg/mL (≈ 9.85 µM) against M arthritidis ATCC 14124; 0.156 µg/mL (≈ 0.307 µM) against M hyorhinis ATCC 23234; at most 0.02 µg/mL in test [16]; 2.5 µg/mL (≈ 4.92 µM) with M gallisepticum S6. In the test with M pneumoniae 427a [17], the MIC worked out at 0.312 µg/mL (≈ 0.615 µM).
As to `C/C(=C\C(=O)OCCCS(=O)(=O)N(C)C)CC1OCC(CC2OC2C(C)C(C)O)C(O)C1O` (stereo not shown) [Example 4, 3-N,N-Dimethylsulphamoylpropyl monate A], the MIC against M. pneumoniae ATCC 15492 amounted to 5000 µg/mL (≈ 10100 µM); against M. suipneumoniae LABER it was 500 µg/mL (≈ 1010 µM); in test [1] it was 500 µg/mL (≈ 1010 µM); in test [2] (M. hyosynoviae ATCC 25591, 6 days at 37° C., read-out: MIC), 250 µg/mL (≈ 506 µM); in [3] it was 50 µg/mL (≈ 101 µM); in test [4], 1000 µg/mL (≈ 2030 µM). For the same compound, the MIC with M. hyorhinis ATCC 25021 was 250 µg/mL (≈ 506 µM); in [5], 500 µg/mL (≈ 1010 µM); in the test with M. suipneumoniae TAM 6N, 1000 µg/mL (≈ 2030 µM); against M. hyorhinis ATCC 23234, 250 µg/mL (≈ 506 µM); in test [6], 750 µg/mL (≈ 1520 µM); with M. gallisepticum S6 (144 h, M. gallisepticum S6, 6 days at 37° C., read-out: MIC) it was over 10000 µg/mL. For the same compound, the MIC against M. suipneumoniae UCD1 is 1000 µg/mL (≈ 2030 µM); against M. suipneumoniae HK(2), 1000 µg/mL (≈ 2030 µM); in test [7], 1000 µg/mL (≈ 2030 µM); with M. bovis NCTC 10131, at most 10 µg/mL; in the test with M. suipneumoniae NB12 (NB12, 144 h), 500 µg/mL (≈ 1010 µM).
Take `C/C(=C\C(=O)OCCCCCCCCS(N)(=O)=O)CC1OCC(CC2OC2C(C)C(C)O)C(O)C1O` (stereo not shown) [Example 3, 8-Sulphamoyloctyl monate A]: the MIC in the test on M suipneumoniae Str 11 came to 0.02 µg/mL (≈ 0.0373 µM); in the test on M dispar NCTC 10125 it was 0.02 µg/mL (≈ 0.0373 µM); in the test on M pneumoniae ATCC 15492 [8] it was 0.312 µg/mL (≈ 0.582 µM); with M pulmonis JB [9], 0.02 µg/mL (≈ 0.0373 µM); in the test with M fermentans MWKL4 [10], 0.02 µg/mL (≈ 0.0373 µM); against M dispar H225, 0.02 µg/mL (≈ 0.0373 µM). The MIC in test [11] was 0.156 µg/mL (≈ 0.291 µM); against M pneumoniae 427a [12], 0.312 µg/mL (≈ 0.582 µM); in the test on M alkalescens NCTC 10135, under 0.02 µg/mL; in the test with M synoviae ATCC 25204, under 0.02 µg/mL; against M pneumoniae ATCC 15492 [13] it was 0.625 µg/mL (≈ 1.17 µM); against M pulmonis JB [14], 0.039 µg/mL (≈ 0.0728 µM). Also, the MIC is 0.039 µg/mL (≈ 0.0728 µM) in the test with M fermentans MWKL4 [15]; 0.078 µg/mL (≈ 0.146 µM) against M hyosynoviae ATCC 25591; 5 µg/mL (≈ 9.33 µM) in the test with M arthritidis ATCC 14124; 0.312 µg/mL (≈ 0.582 µM) in the test with M hyorhinis ATCC 23234; under 0.039 µg/mL in [16]; 2.5 µg/mL (≈ 4.67 µM) against M gallisepticum S6. Further, the MIC in the test on M pneumoniae 427a [17] amounted to 0.312 µg/mL (≈ 0.582 µM).

The values above are taken from patent publication US4312867A, “Antibacterial compounds, processes for their preparation and compositions containing them” (Beecham Group Limited, priority 1979, dated 1982).
